Experimental data as given in US20250206757A1 (GASHERBRUM BIO, INC., priority 2022, published 2025).

Molecular target: GLP-1 Receptor (Homo sapiens, UniProt P43220)
Assay: GLP-1R agonist cAMP stimulation assay (HEK293/GLP1R/CRE-LUC cells, HTRF cAMP dynamic 2 kit)
Type: cell-based
Conditions: HEK293/CRE-Luc cell line stably expressing the GLP-1 Receptor; 30 min incubation at 37° C.
Summary of the method: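 HEK293 cells stably expressing GLP-1R with CRE-Luc, 1000 cells/well in DPBS with 0.5 mM IBMX and 0.10% BSA, exposed to half-log compound dilutions for 30 min at 37 °C. cAMP measured by HTRF (665/615 nm) after 1 h at room temperature.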

Chain of GLP-1 Receptor (P43220 24-463): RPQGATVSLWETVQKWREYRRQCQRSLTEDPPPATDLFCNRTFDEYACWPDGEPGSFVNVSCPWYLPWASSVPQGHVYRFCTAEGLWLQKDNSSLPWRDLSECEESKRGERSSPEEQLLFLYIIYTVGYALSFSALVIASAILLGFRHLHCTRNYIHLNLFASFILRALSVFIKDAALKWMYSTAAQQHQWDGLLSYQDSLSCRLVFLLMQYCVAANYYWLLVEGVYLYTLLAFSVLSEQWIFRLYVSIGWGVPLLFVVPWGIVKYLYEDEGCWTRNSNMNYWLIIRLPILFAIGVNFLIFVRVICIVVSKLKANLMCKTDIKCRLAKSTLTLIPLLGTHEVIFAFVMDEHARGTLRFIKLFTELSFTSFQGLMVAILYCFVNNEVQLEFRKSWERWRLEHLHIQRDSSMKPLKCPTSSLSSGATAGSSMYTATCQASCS

| SMILES | EC50 |
| --- | --- |
| O=c1[nH]c(-c2cc3nc(CN4CCc5cc(C(F)(F)F)c(OCc6ccc(Cl)cc6F)nc5C4)n(C[C@@H]4CCO4)c3cc2F)no1 [Compound 38, 3-[2-({2-[(4-chloro-2-fluorophenyl)methoxy]-3-(trifluoromethyl)-5,6,7,8-tetrahydro-1,7-naphthyridin-7-yl}methyl)-6-fluoro-1-{[(2S)-oxetan-2-yl]methyl}-1H-1,3-benzodiazol-5-yl]-4,5-dihydro-1,2,4-oxadiazol-5-one] | 1 to 300 nM |
| O=C(NCC(F)(F)F)c1cc2nc(CN3CCc4cc(C(F)(F)F)c(OCc5ccc(Cl)cc5F)nc4C3)n(C[C@@H]3CCO3)c2cn1 [Compound 23, 2-({2-[(4-chloro-2-fluorophenyl)methoxy]-3-(trifluoromethyl)-5,6,7,8-tetrahydro-1,7-naphthyridin-7-yl}methyl)-3-{[(2S)-oxetan-2-yl]methyl}-N-(2,2,2-trifluoroethyl)-3H-imidazo[4,5-c]pyridine-6-carboxamide] | 1 to 300 nM |
| CC(c1nc2cc(-c3nnc(C#N)[nH]3)ncc2n1C[C@@H]1CCO1)N1CCc2cc(C(F)(F)F)c(OCc3c(F)cc(Cl)cc3F)nc2C1 (stereo partly drawn) [Compound 84, 5-[2-(1-{2-[(4-chloro-2,6-difluorophenyl)methoxy]-3-(trifluoromethyl)-5,6,7,8-tetrahydro-1,7-naphthyridin-7-yl}ethyl)-3-{1[(2S)-oxetan-2-yl]methyl}-3H-imidazo[4,5-c]pyridin-6-yl]-4H-1,2,4-triazole-3-carbonitrile] | < 1 nM |
| Cc1cc2c(nc1NCc1c(F)cc(Cl)cc1F)CN(Cc1nc3cc(-c4noc(=O)[nH]4)ncc3n1C[C@@H]1CCO1)CC2 [Compound 35, 3-{2-[(2-{[(4-chloro-2,6-difluorophenyl)methyl]amino}-3-methyl-5,6,7,8-tetrahydro-1,7-naphthyridin-7-yl)methyl]-3-{[(2S)-oxetan-2-yl]methyl}-3H-imidazo[4,5-c]pyridin-6-yl}-4,5-dihydro-1,2,4-oxadiazol-5-one] | < 1 nM |
| O=c1[nH]c(-c2ccc3c(n2)nc(CN2CCc4cc(C(F)(F)F)c(OCc5ccc(Cl)cc5F)nc4C2)n3C[C@@H]2CCO2)no1 [Compound 49, 3-[2-({2-[(4-chloro-2-fluorophenyl)methoxy]-3-(trifluoromethyl)-5,6,7,8-tetrahydro-1,7-naphthyridin-7-yl}methyl)-1-{[(2S)-oxetan-2-yl]methyl}-11H-imidazo[4,5-b]pyridin-5-yl]-4,5-dihydro-1,2,4-oxadiazol-5-one] | < 1 nM |
| Fc1cc(Cl)ccc1COc1nc2c(cc1C(F)(F)F)CCN(Cc1nc3sc(-c4nnc(C(F)(F)F)[nH]4)cc3n1C[C@@H]1CCO1)C2 [Compound 59, 2-[(4-chloro-2-fluorophenyl)methoxy]-7-[(1-{[(2S)-oxetan-2-yl]methyl}-5-[5-(trifluoromethyl)-4H-1,2,4-triazol-3-yl]-1H-thieno[2,3-d]imidazol-2-yl)methyl]-3-(trifluoromethyl)-5,6,7,8-tetrahydro-1,7-naphthyridine] | < 1 nM |
| NC(=O)c1ccc2c(c1)nc(CN1CCc3cc(C(F)(F)F)c(OCc4ccc(Cl)cc4F)nc3C1)n2C[C@@H]1CCO1 [Compound 92, 2-({2-[(4-chloro-2-fluorophenyl)methoxy]-3-(trifluoromethyl)-5,6,7,8-tetrahydro-1,7-naphthyridin-7-yl}methyl)-1-{[(2S)-oxetan-2-yl]methyl}-1H-1,3-benzodiazole-5-carboxamide] | 1 to 300 nM |
| O=c1ccc(-c2cc3nc(CN4CCc5cc(C(F)(F)F)c(OCc6ccc(Cl)cc6F)nc5C4)n(C[C@@H]4CCO4)c3cn2)c[nH]1 [Compound 102, 5-[2-({2-[(4-chloro-2-fluorophenyl)methoxy]-3-(trifluoromethyl)-5,6,7,8-tetrahydro-1,7-naphthyridin-7-yl}methyl)-3-{[(2S)-oxetan-2-yl]methyl}-3H-imidazo[4,5-c]pyridin-6-yl]-1,2-dihydropyridin-2-one] | > 300 nM |
